Results taken from US8349880B2, “Bicyclic compounds for the reduction of beta-amyloid production” (Bristol-Myers Squibb Company, priority 2009, dated 2013).

Tested on: Aβ1-42 production
Assay: Cellular assay for inhibition of Aβ1-42 production (H4 APP751 SWE clone 8.20)
Type: cell-based
Settings: 19 h, H4 APP751 SWE clone 8.20 cells, 19 h incubation; read-out: Activity Rating (Aβ42 cellular IC50, given as a number)
In short: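 Aβ42 level read with antibodies 565, against the Aβ42 neoepitope, and N-terminal 26D6, incubated overnight at 4° C, after exposure of H4 APP751 SWE clone 8.20 cells to compound for 19 h at 37° C. Medium was DMEM plus 0.0125% BSA, 1.5×10^4 cells/well. IC50 values come from curve fitting.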

Question: `COc1cc(Nc2nc3n(n2)CCC(N(C)C)CC3c2ccc(F)cc2)ccc1-n1cnc(Cl)c1` (stereo not shown) [Example 141, N2-(4-(4-chloro-1H-imidazol-1-yl)-3-methoxyphenyl)-9-(4-fluorophenyl)-N7,N7-dimethyl-6,7,8,9-tetrahydro-5H-[1,2,4]triazolo[1,5-a]azepine-2,7-diamine] was tested. Which IC50 did it give?
Answer: 70 nM

Question: How did the IC50 turn out when `Cc1ncn(-c2ccc(Nc3nc4n(n3)CCC3(CC4c4ccc(F)cc4)OCCO3)cc2F)n1` (stereo not shown) [Example 158, N-(3-fluoro-4-(3-methyl-1H-1,2,4-triazol-1-yl)phenyl)-9-(4-fluorophenyl)-5,6,8,9-tetrahydrospiro[[1,2,4]triazolo[1,5-a]azepine-7,2′-[1,3]dioxolan]-2-amine 2,2,2-trifluoroacetate] was run?
Answer: 16 nM

Question: Which IC50 does the source give for `COc1cc(Nc2nc3n(n2)CCCCC3c2ccc(OC(F)(F)F)cc2)cc(F)c1-n1cnc(C)n1` (stereo not shown) [Example 167, N-(3-fluoro-5-methoxy-4-(3-methyl-1H-1,2,4-triazol-1-yl)phenyl)-9-(4-(trifluoromethoxy)phenyl)-6,7,8,9-tetrahydro-5H-[1,2,4]triazolo[1,5-a]azepin-2-amine] here?
Answer: 44 nM

Question: With `COc1cc(Nc2nc3n(n2)CCCCC3c2ccc(-n3cncn3)cc2)ccc1-n1cnc(Cl)c1` (stereo not shown) [Example 172, 9-(4-(1H-1,2,4-triazol-1-yl)phenyl)-N-(4-(4-chloro-1H-imidazol-1-yl)-3-methoxyphenyl)-6,7,8,9-tetrahydro-5H-[1,2,4]triazolo[1,5-a]azepin-2-amine 2,2,2-trifluoroacetate] as the compound, how does the IC50 read?
Answer: 64 nM

Same assay, conditions: 19 h, H4 APP751 SWE clone 8.20 cells, 19 h incubation; read-out: Activity Rating (based on Aβ42 cellular IC50 values)

Question: With `COc1cc(Nc2nc3n(n2)CCC(=O)CC3c2ccc(F)cc2)ccc1-n1cnc(Cl)c1` (stereo not shown) [Example 137, 2-(4-(4-chloro-1H-imidazol-1-yl)-3-methoxyphenylamino)-9-(4-fluorophenyl)-8,9-dihydro-5H-[1,2,4]triazolo[1,5-a]azepin-7(6H)-one 2,2,2-trifluoroacetate] as the compound, how does the IC50 read?
Answer: < 10 nM

Question: `CO/N=C1/CCn2nc(Nc3ccc(-n4cnc(Cl)c4)c(OC)c3)nc2C(c2ccc(F)cc2)C1` (stereo not shown) [Example 138, (E)-2-(4-(4-chloro-1H-imidazol-1-yl)-3-methoxyphenylamino)-9-(4-fluorophenyl)-8,9-dihydro-5H-[1,2,4]triazolo[1,5-a]azepin-7(6H)-one O-methyl oxime 2,2,2-trifluoroacetate] was tested. Which IC50 did it give?
Answer: 10 to 100 nM

Question: For `COc1cc(Nc2nc3n(n2)CCC(F)(F)CC3c2ccc(F)cc2)ccc1-n1cnc(Cl)c1` (stereo not shown) [Example 139, N-(4-(4-chloro-1H-imidazol-1-yl)-3-methoxyphenyl)-7,7-difluoro-9-(4-fluorophenyl)-6,7,8,9-tetrahydro-5H-[1,2,4]triazolo[1,5-a]azepin-2-amine 2,2,2-trifluoroacetate], which IC50 is on record?
Answer: 10 to 100 nM

Question: With `CNC1CCn2nc(Nc3ccc(-n4cnc(Cl)c4)c(OC)c3)nc2C(c2ccc(F)cc2)C1` (stereo not shown) [Example 140, N2-(4-(4-chloro-1H-imidazol-1-yl)-3-methoxyphenyl)-9-(4-fluorophenyl)-N-7-methyl-6,7,8,9-tetrahydro-5H-[1,2,4]triazolo[1,5-a]azepine-2,7-diamine 2,2,2-trifluoroacetate] as the compound, how does the IC50 read?
Answer: 10 to 100 nM

Question: `COc1cc(Nc2nc3n(n2)CCC(N2CCC2)CC3c2ccc(F)cc2)ccc1-n1cnc(Cl)c1` (stereo not shown) [Example 142, 7-(azetidin-1-yl)-N-(4-(4-chloro-1H-imidazol-1-yl)-3-methoxyphenyl)-9-(4-fluorophenyl)-6,7,8,9-tetrahydro-5H-[1,2,4]triazolo[1,5-a]azepin-2-amine] was tested. Which IC50 did it give?
Answer: 10 to 100 nM

Question: Which IC50 does the source give for `COc1cc(Nc2nc3n(n2)CCC(N2CCCC2)CC3c2ccc(F)cc2)ccc1-n1cnc(Cl)c1` (stereo not shown) [Example 143, N-(4-(4-chloro-1H-imidazol-1-yl)-3-methoxyphenyl)-9-(4-fluorophenyl)-7-(pyrrolidin-1-yl)-6,7,8,9-tetrahydro-5H-[1,2,4]triazolo[1,5-a]azepin-2-amine] here?
Answer: 10 to 100 nM

Question: For `COc1cc(Nc2nc3n(n2)CCC2(CC3c3ccc(F)cc3)OCCO2)ccc1-n1cnc(Cl)c1` (stereo not shown) [Example 144, N-(4-(4-chloro-1H-imidazol-1-yl)-3-methoxyphenyl)-9-(4-fluorophenyl)-5,6,8,9-tetrahydrospiro[[1,2,4]triazolo[1,5-a]azepine-7,2′-[1,3]dioxolan]-2-amine 2,2,2-trifluoroacetate], which IC50 is on record?
Answer: < 10 nM

Question: With `COc1cc(Nc2nc3n(n2)CCC(OC)(OC)CC3c2ccc(F)cc2)ccc1-n1cnc(Cl)c1` (stereo not shown) [Example 145, N-(4-(4-chloro-1H-imidazol-1-yl)-3-methoxyphenyl)-9-(4-fluorophenyl)-7,7-dimethoxy-6,7,8,9-tetrahydro-5H-[1,2,4]triazolo[1,5-a]azepin-2-amine] as the compound, how does the IC50 read?
Answer: < 10 nM

Question: Which IC50 does the source give for `CCC1(O)CCn2nc(Nc3ccc(-n4cnc(Cl)c4)c(OC)c3)nc2C(c2ccc(F)cc2)C1` (stereo not shown) [Example 146, 2-(4-(4-chloro-1H-imidazol-1-yl)-3-methoxyphenylamino)-7-ethyl-9-(4-fluorophenyl)-6,7,8,9-tetrahydro-5H-[1,2,4]triazolo[1,5-a]azepin-7-ol] here?
Answer: < 10 nM

Question: `COc1cc(Nc2nc3n(n2)CCCCC3c2ccccc2)ccc1-n1cnc(Cl)c1` (stereo not shown) [Example 159, 2,2,2-trifluoroacetate] was tested. Which IC50 did it give?
Answer: < 10 nM

Question: For `Cc1ncnn1-c1ccc(Nc2nc3n(n2)CCCCC3c2ccc(OC(F)(F)F)c(F)c2)cc1F` (stereo not shown) [Example 160, N-(3-fluoro-4-(5-methyl-1H-1,2,4-triazol-1-yl)phenyl)-9-(3-fluoro-4-(trifluoromethoxy)phenyl)-6,7,8,9-tetrahydro-5H-[1,2,4]triazolo[1,5-a]azepin-2-amine], which IC50 is on record?
Answer: < 10 nM

Question: For `COc1cc(Nc2nc3n(n2)CCCCC3c2ccc(OCC(F)F)cc2)ccc1-n1cnc(Cl)c1` (stereo not shown) [Example 161, N-(4-(4-chloro-1H-imidazol-1-yl)-3-methoxyphenyl)-9-(4-(2,2-difluoroethoxy)phenyl)-6,7,8,9-tetrahydro-5H-[1,2,4]triazolo[1,5-a]azepin-2-amine], which IC50 is on record?
Answer: 10 to 100 nM

Question: Which IC50 does the source give for `Cc1ncn(-c2ccc(Nc3nc4n(n3)CCCCC4c3ccc(OC(F)(F)F)c(F)c3)cc2F)n1` (stereo not shown) [Example 164, N-(3-fluoro-4-(3-methyl-1H-1,2,4-triazol-1-yl)phenyl)-9-(3-fluoro-4-(trifluoromethoxy)phenyl)-6,7,8,9-tetrahydro-5H-[1,2,4]triazolo[1,5-a]azepin-2-amine] here?
Answer: < 10 nM

Question: Which IC50 does the source give for `COc1cc(Nc2nc3n(n2)CCCCC3c2ccc(Br)cc2)ccc1-n1cnc(Cl)c1` (stereo not shown) [Example 170, 9-(4-bromophenyl)-N-(4-(4-chloro-1H-imidazol-1-yl)-3-methoxyphenyl)-6,7,8,9-tetrahydro-5H-[1,2,4]triazolo[1,5-a]azepin-2-amine] here?
Answer: < 10 nM

Question: `COc1cc(Nc2nc3n(n2)CCCCC3c2ccc(-n3cccn3)cc2)ccc1-n1cnc(Cl)c1` (stereo not shown) [Example 171, 9-(4-(1H-pyrazol-1-yl)phenyl)-N-(4-(4-chloro-1H-imidazol-1-yl)-3-methoxyphenyl)-6,7,8,9-tetrahydro-5H-[1,2,4]triazolo[1,5-a]azepin-2-amine 2,2,2-trifluoroacetate] was tested. Which IC50 did it give?
Answer: 10 to 100 nM

Question: How did the IC50 turn out when `COc1cc(Nc2nc3n(n2)CCCCC3c2ccc(-n3ccnc3)cc2)ccc1-n1cnc(Cl)c1` (stereo not shown) [Example 173, 9-(4-(1H-imidazol-1-yl)phenyl)-N-(4-(4-chloro-1H-imidazol-1-yl)-3-methoxyphenyl)-6,7,8,9-tetrahydro-5H-[1,2,4]triazolo[1,5-a]azepin-2-amine 2,2,2-trifluoroacetate] was run?
Answer: 100 to 1000 nM

Question: With `COc1cc(Nc2nc3n(n2)CCCCC3c2ccc(-n3cc(C)cn3)cc2)ccc1-n1cnc(Cl)c1` (stereo not shown) [Example 174, N-(4-(4-chloro-1H-imidazol-1-yl)-3-methoxyphenyl)-9-(4-(4-methyl-1H-pyrazol-1-yl)phenyl)-6,7,8,9-tetrahydro-5H-[1,2,4]triazolo[1,5-a]azepin-2-amine 2,2,2-trifluoroacetate] as the compound, how does the IC50 read?
Answer: < 10 nM

Question: How did the IC50 turn out when `COc1cc(Nc2nc3n(n2)CCCCC3c2ccc(OC(F)(F)F)cc2)c(F)cc1-n1cnc(C)n1` (stereo not shown) [Example 175, N-(2-fluoro-5-methoxy-4-(3-methyl-1H-1,2,4-triazol-1-yl)phenyl)-9-(4-(trifluoromethoxy)phenyl)-6,7,8,9-tetrahydro-5H-[1,2,4]triazolo[1,5-a]azepin-2-amine] was run?
Answer: 10 to 100 nM

Same assay, conditions: H4 APP751 SWE clone 8.20 cells, 19 h incubation; read-out: Activity Rating (based on Aβ42 cellular IC50 values)

Question: Which IC50 does the source give for “(R)—N-(3-fluoro-4-(5-methyl-1H-1,2,4-triazol-1-yl)phenyl)-9-(4-fluorophenyl)-6,7,8,9-tetrahydro-5H-[1,2,4]triazolo azepin-2-amine [Example 95]” here?
Answer: 10 to 100 nM

Question: How did the IC50 turn out when “(S)—N-(2-fluoro-5-methoxy-4-(3-methyl-1H-1,2,4-triazol-1-yl)phenyl)-9-(4-(2,2,2-trifluoroethoxy)phenyl)-6,7,8,9-tetrahydro-5H-[1,2,4]triazolo azepin-2-amine [Example 117]” was run?
Answer: 10 to 100 nM

Question: How did the IC50 turn out when “S)—N-(4-(4-chloro-1H-imidazol-1-yl)-3-methoxyphenyl)-9-(3,4-difluorophenyl)-6,7,8,9-tetrahydro-5H-[1,2,4]triazolo[1,5-a]azepin-2-amine [Example 23]” was run?
Answer: < 10 nM
